Laboratory results taken from US20040147561A1, “Pyrid-2-one derivatives and methods of use” (priority 2002, published 2004).
Structures can show the parent of a compound that is named as a salt.

melting point	SMILES
260 °C (dec.)	CCOC(=O)c1cc(-c2csc(-c3ccc(F)cc3)n2)c(=O)[nH]c1C [Example 34, Ethyl 2-methyl-6-oxo-5-{2-[4-fluorophenyl](1,3-thiazol-4-yl)}-1,6-dihydro-3-pyridinecarboxylate]
231 to 234 °C	CCOC(=O)c1cc(-c2csc(N(C)S(=O)(=O)c3ccccc3)n2)c(=O)[nH]c1C (as salt: salt) [Example 68, Ethyl 2-methyl-5-{2-[methyl(phenylsulfonyl)amino](1,3-thiazol-4-yl)}-6-oxo-1,6-dihydro-3-pyridinecarboxylate]
> 260 °C	Cc1[nH]c(=O)c(-c2csc(-c3ccnc(NCc4ccccn4)c3)n2)cc1C(=O)NCc1ccccn1 [Example 88, 2-Methyl-6-oxo-N-(2-pyridinylmethyl)-5-(2-(2-((2-pyridinylmethyl)amino)-4-pyridinyl)-1,3-thiazol-4-yl)-1,6-dihydro-3-pyridinecarboxamide]
230 °C (dec.)	CCOC(=O)c1cc(-c2csc(-c3ccsc3)n2)c(=O)[nH]c1C [Example 31, Ethyl 2-methyl-6-oxo-5-{2-[3-thienyl](1,3-thiazol-4-yl)}-1,6-dihydro-3-pyridinecarboxylate]
230 °C (dec.)	CC(=O)NCCNc1cc(-c2nc(-c3ccc(C)[nH]c3=O)cs2)ccn1 [Example 59, N-(2-{4-[4-(6-Methyl-2-oxo-1,6-dihydropyridin-3-yl)-thiazol-2-yl]-pyridin-2-ylamino}-ethyl)-acetamide]
> 260 °C	CCOC(=O)c1cc(-c2csc(-c3ccnc(NCc4ccc(OC)cc4)c3)n2)c(=O)[nH]c1C [Example 64, Ehtyl 5-{2-[2-(4-Methoxy-benzyamino)-pyridin-4-yl]-thiazol-4-yl}-2-methyl-6-oxo-1,6-dihydro-3-pyridinecarboxylate]
260 °C (dec.)	CCOC(=O)c1cc(-c2csc(-c3c(Cl)cccc3Cl)n2)c(=O)[nH]c1C [Example 35, Ethyl 5-[2-(2,6-dichlorophenyl)(1,3-thiazol-4-yl)]2-methyl-6-oxo-1,6-dihydro-3-pyridinecarboxylate]
249 to 254 °C	COCc1ccc(-c2csc(-c3ccncc3)n2)c(=O)[nH]1 [Example 70, 6-(Methoxymethyl)-3-(2-(4-pyridinyl)-1,3-thiazol-4-yl)-2(1H)-pyridinone]
270 °C (dec.)	CCOC(=O)c1cc(-c2csc(-c3ccnc(NCCOc4ccccc4)c3)n2)c(=O)[nH]c1C [Example 91, Ethyl 2-methyl-6-oxo-5-(2-(2-((2-(phenyloxy)ethyl)amino)-4-pyridinyl)-1,3-thiazol-4-yl)-1,6-dihydro-3-pyridinecarboxylate]
290 °C (dec.)	CCOC(=O)c1cc(-c2csc(-c3c(Cl)cncc3Cl)n2)c(=O)[nH]c1C [Example 42, Ethyl 5-[2-(3,5-dichloro-pyridyl-4-yl)-thiazol-4-yl]-2-methyl-6-oxo-1,6-dihydro-3-pyridinecarboxylate]
260 °C (dec.)	CCOC(=O)c1cc(-c2csc(-c3ccnc(NCc4ccco4)c3)n2)c(=O)[nH]c1C (as salt: HCl) [Example 53, Ethyl 5-(2-(2-[(fur-2-ylmethyl)-amino]-pyridin-4-yl}-thiazol-4-yl)-2-methyl-6-oxo-1,6-dihydro-3-pyridinecarboxylate]
> 230 °C	CCOC(=O)c1cc(-c2csc(-c3ccnc(N(C)C)c3)n2)c(=O)[nH]c1C(C)C (as salt: hydrochloride) [Example 93, Ethyl 5-[2-(dimethylamino-pyridin-4-yl)-thiazol-4-yl]-2-isopropyl-6-oxo-1,6-dihydro-3-pyridinecarboxylate]
> 230 °C	CCOC(=O)c1cc(-c2csc(-c3ccnc(NC)c3)n2)c(=O)[nH]c1C(C)C (as salt: HCl) [Example 94, Ethyl 5-[2-(methylamino-pyridin-4-yl)-thiazol-4-yl]-2-isopropyl-6-oxo-1,6-dihydro-3-pyridinecarboxylate]
300 °C (dec.)	CCOC(=O)c1cc(-c2csc(CS(=O)(=O)Cc3ccc(F)cc3)n2)c(=O)[nH]c1C [Example 26, Ethyl 5-[2-({[(4-fluorophenyl)methyl]sulfonyl}mthyl)(1,3-thiazol-4-yl)]-2-methyl-6-oxo-1,6-dihydro-3-pyridinecarboxylate]
195 °C (dec.)	CCOC(=O)c1cc(-c2csc(-c3csc(C)n3)n2)c(=O)[nH]c1C [Example 36]
280 °C (dec.)	COc1ccc(CNC(=O)c2cc(-c3csc(-c4ccnc(NCc5ccc(OC)cc5)c4)n3)c(=O)[nH]c2C)cc1 (as salt: HCl) [Example 63, 5-{2-[2-(4-Methoxy-benzyamino)-pyridin-4-yl]-thiazol-4-yl}-2-methyl-6-oxo-1,6-dihydropyridine-3-carboxylic acid 4-methoxy-benzylamide]
270 °C (dec.)	CCOC(=O)c1cc(-c2csc(-c3ccnc(NC)c3)n2)c(=O)[nH]c1C [Example 83, Ethyl 2-methyl-5-(2-(2-(methylamino)-4-pyridinyl)-1,3-thiazol-4-yl)-6-oxo-1,6-dihydro-3-pyridinecarboxylate]
270 °C (dec.)	CCOC(=O)c1cc(-c2csc(-c3ccnc(NCc4ccccn4)c3)n2)c(=O)[nH]c1C [Example 90, Ethyl 2-methyl-6-oxo-5-(2-(2-((2-pyridinylmethyl)amino)-4-pyridinyl)-1,3-thiazol-4-yl)-1,6-dihydro-3-pyridinecarboxylate]

melting point	SMILES
243 to 245 °C	O=c1[nH]cc(Oc2ccccc2)cc1-c1csc(-c2ccncc2)n1 (as salt: salt) [Example 71, 5-Phenoxy-3-(2-(4-pyridinyl)-1,3-thiazol-4-yl)-2(1H)-pyridinone]
300 °C (dec.)	CCOC(=O)c1cc(-c2csc(CS(=O)(=O)c3ccc(Cl)cc3)n2)c(=O)[nH]c1C [Example 25]
250 °C (dec.)	CCOC(=O)c1cc(-c2csc(CS(=O)(=O)C(C)(C)C)n2)c(=O)[nH]c1C [Example 38, Ethyl 5-(2-{[(tert-butyl)sulfonyl]methyl}(1,3-thiazol-4-yl))-2-methyl-6-oxo-1,6-dihydro-3-pyridinecarboxylate]
260 °C (dec.)	CCOC(=O)c1cc(-c2csc(CSc3ccccc3)n2)c(=O)[nH]c1C [Example 28, Ethyl 2-methyl-6-oxo-5-{2-(phenylthiomethyl)(1,3-thiazol-4-yl)}-1,6-dihydro-3-pyridinecarboxylate]
230 °C (dec.)	CCCCNc1cc(-c2nc(-c3cc(C(=O)OCC)c(C)[nH]c3=O)cs2)ccn1 (as salt: HCl) [Example 56, Ethyl 5-[2-(2-butylamino-pyridin-4-yl)-thiazol-4-yl]-2-methyl-6-oxo-1,6-dihydro-3-pyridinecarboxylate]
230 °C (dec.)	CCOC(=O)c1cc(-c2csc(-c3ccc4c(c3)OCO4)n2)c(=O)[nH]c1C [Example 32, Ethyl 5-(2-(2H-benzo[d]1,3-dioxolan-5-yl)(1,3-thiazol-4-yl))-2-m thyl-6-oxo-1,6-dihydro-3-pyridinecarboxylate]
270 °C (dec.)	CCOC(=O)c1cc(-c2csc(-c3ccnc(NCCNC(C)=O)c3)n2)c(=O)[nH]c1C (as salt: HCl) [Example 58]
260 °C (dec.)	CCOC(=O)c1cc(-c2csc(-c3ccnc(N4CCCCC4)c3)n2)c(=O)[nH]c1C [Example 45, Ethyl 2-methyl-6-oxo-5-(2-(2-(1-piperidinyl)-4-pyridinyl)-1,3-thiazol-4-yl)-1,6-dihydro-3-pyridinecarboxylate]
> 260 °C	CCNCCNC(=O)c1cc(-c2csc(-c3ccnc(NCCNCC)c3)n2)c(=O)[nH]c1C [Example 66]
270 °C (dec.)	CCOC(=O)c1cc(-c2csc(-c3ccnc(NCC(N)=O)c3)n2)c(=O)[nH]c1C (as salt: HCl) [Example 57, Ethyl 5-{2-[2-(carbamoylmethyl-amino)-pyridin-4-yl]-thiazol-4-yl}-2-methyl-6-oxo-1,6-dihydro-3-pyridinecarboxylate]
290 °C (dec.)	CCOC(=O)c1cc(-c2csc(-c3ccnc(NCc4ccccc4)c3)n2)c(=O)[nH]c1C [Example 48, Ethyl 2-methyl-6-oxo-5-(2-(2-((phenylmethyl)amino)-4-pyridinyl)-1,3-thiazol-4-yl)-1,6-dihydro-3-pyridinecarboxylate]
300 °C (dec.)	CCOC(=O)c1cc(-c2csc(CS(=O)(=O)Cc3cccc(C(F)(F)F)c3)n2)c(=O)[nH]c1C [Example 30]
> 260 °C	Cc1[nH]c(=O)c(-c2csc(-c3ccnc(NCC4CC4)c3)n2)cc1C(=O)NCC1CC1 (as salt: HCl) [Example 60, N-(Cyclopropylmethyl)-5-(2-(2-((cyclopropylmethyl)amino)-4-pyridinyl)-1,3-thiazol-4-yl)-2-methyl-6-oxo-1,6-dihydro-3-pyridinecarboxamide]
230 °C (dec.)	CCOC(=O)c1cc(-c2csc(CS(C)(=O)=O)n2)c(=O)[nH]c1C [Example 43, Ethyl 5-(2-{[(methyl)sulfonyl]methyl}(1,3-thiazol-4-yl))-2-methyl-6-oxo-1,6-dihydro-3-pyridinecarboxylate]
300 °C (dec.)	CCOC(=O)c1cc(-c2csc(-c3sccc3CS(=O)(=O)c3ccc(Cl)cc3)n2)c(=O)[nH]c1C [Example 44]
290 °C (dec.)	CCOC(=O)c1cc(-c2csc(CS(=O)(=O)Cc3ccco3)n2)c(=O)[nH]c1C [Example 37, Ethyl 5-(2-{[(2-furylmethyl)sulfonyl]methyl}(1,3-thiazol-4-yl))-2-methyl-6-oxo-1,6-dihydro-3-pyridinecarboxylate]
260 °C (dec.)	CCOC(=O)c1cc(-c2csc(-c3ccnc(NCC4CCCC4)c3)n2)c(=O)[nH]c1C (as salt: HCl) [Example 62, Ethyl 5-{2-[2-(Cyclopentyl)methylamino-pyridin-4-yl]-thiazol-4-yl}-2-methyl-6-oxo-1,6-dihydro-3-pyridinecarboxylate]
280 °C (dec.)	CCOC(=O)c1cc(-c2csc(-c3ccnc(NCc4ccc(F)cc4)c3)n2)c(=O)[nH]c1C (as salt: HCl) [Example 55, Ethyl 5-{2-[2-(4-fluoro-benzylamino)-pyridin-4-yl]-thiazol-4-yl}-2-methyl-6-oxo-1,6-dihydro-3-pyridinecarboxylate]
